Several values for one entry are separate records, joined by “and”; a condition that tells them apart may be missing. Equal values may be shown once.
How the values were obtained:
[1] = biological target: T1, ERα (Homo sapiens, UniProt P03372); assay: CRISPR VHL knock out, ERα imaging in MCF7 Cas9 cells; format: cell-based; details: MCF7 Cas9, 24 h
T1 construct: endogenous in cells; host or cells: MCF7 (also MCF7 engineered to express Cas9)
T1 sequence (P03372 1-595): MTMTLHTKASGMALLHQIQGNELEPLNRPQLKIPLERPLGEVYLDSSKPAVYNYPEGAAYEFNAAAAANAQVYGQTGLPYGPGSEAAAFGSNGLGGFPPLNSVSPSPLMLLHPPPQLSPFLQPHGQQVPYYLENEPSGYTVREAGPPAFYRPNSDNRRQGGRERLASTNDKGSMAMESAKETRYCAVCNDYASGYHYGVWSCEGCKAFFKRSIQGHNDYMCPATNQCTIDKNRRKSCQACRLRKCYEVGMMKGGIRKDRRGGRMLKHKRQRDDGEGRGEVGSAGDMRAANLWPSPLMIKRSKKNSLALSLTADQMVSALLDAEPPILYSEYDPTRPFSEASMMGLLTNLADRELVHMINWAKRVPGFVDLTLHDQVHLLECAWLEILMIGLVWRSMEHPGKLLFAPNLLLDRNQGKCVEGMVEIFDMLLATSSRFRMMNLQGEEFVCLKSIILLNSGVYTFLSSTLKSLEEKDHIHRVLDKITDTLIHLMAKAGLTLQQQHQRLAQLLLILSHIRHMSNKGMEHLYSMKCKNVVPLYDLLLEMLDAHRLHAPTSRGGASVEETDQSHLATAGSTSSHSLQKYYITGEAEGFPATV
Description: Chemically synthesised Edit-R crRNAs targeting VHL and ESR1 were purchased from Horizon Discovery (Cambridge, UK). Equal volumes of 4 crRNAs targeting each individual gene were pooled and then duplexed at a 1:1 ratio in 10 mM Tris pH7.4 buffer with tracrRNA (Horizon, U-002000-50) at room temperature. MCF7 cells were engineered to express cas9 under TetON promotor from the endogenous AAVS1 locus as described previously. Doxycycline-inducible Cas9 is linked via the cleavable T2A peptide to BFP enabling the identification of Cas9-positive cells by microscopy. MCF7 cas9 cells were cultured in RPMI phenol red free (Sigma) supplemented with 10% FBS and 1X GlutaMax (both Gibco). 72 h prior to reverse transfection, cas9 expression was induced by the addition 15 ng/mL doxycycline (Sigma) to the growth media.
MCF7 cells were reverse transfected with the crRNA:tracrRNA pools at 25 nM final concentration using Lipofectamine® RNAiMAX transfection reagent (Thermo Fisher): First crRNA:tracrRNA pools were dispensed into 384-well assay plates (Greiner, 781090), and incubated with 10 µL serum-free DMEM (Sigma) supplemented with 1% Lipofectamine RNAiMAX for 20 minutes at room temperature. […] Following image acquisition, analysis was completed using the Columbus Image Analysis platform (Perkin Elmer) to quantify ESR1 levels in cas9-positive cells. […]

[2] = biological target: T1, ERα; assay: SILAC pulse-chase and mass spectrometry, ERα turnover in MCF7 cells; format: cell-based; details: 1 µM
Description: MCF7 cells were grown for a minimum of 2 passages in SILAC media (Pierce, Thermo Scientific) containing ^13C6^15N4 arginine and ^13C6 lysine. The extent of stable isotope incorporation was determined by mass spectrometry. For the assay, cells were plated at 1.2 x 10^6 cells/well into 6-well TC-treated plates in media containing 5% double charcoal stripped FBS^13,C6^15N4 arginine and ^13C6^15N2 lysine for 24 hours. At time 0, the media containing isotopically heavy arginine and lysine was replaced with media containing unlabelled equivalents plus either AZ’6421, fulvestrant or DMSO control. […] Equal concentrations of timecourse lysates were mixed with an internal standard lysate derived from ^[…] lysine labelled MCF7 cells. ER protein was immunoprecipitated overnight at 4 °C with an ER antibody (Rabbit clone SP1, Thermo Scientific) and immobilised onto a U-bottomed Nunc MaxiSorp plate (Thermo Scientific). Wells were sequentially washed with each of the following; RIPA buffer, PBS and water. Samples were digested by addition of 30 μL well sequencing grade trypsin (Promega) in 50 mM ammonium bicarbonate at 37 °C for a minimum of 16 hours. The resultant peptide samples were acidified and analysed by selected reaction monitoring (SRM) mass spectrometry. Protein half-life was determined using the one-phase exponential decay function in GraphPad PRISM where Y = (Y0 - Plateau)*exp(-K*X) + Plateau.

## Cc1ncsc1-c1ccc(CNC(=O)[C@@H]2C[C@@H](O)CN2C(=O)[C@@H](NC(=O)COCCCOCCCOc2cc(F)c([C@@H]3c4[nH]c5ccccc5c4C[C@@H](C)N3CC(C)(C)F)c(F)c2)C(C)(C)C)cc1 [Compound 5]
[1]
  effect of VHL knockout on ER degradation: partially reduced
[2]; Time 0, MCF7
  % heavy (ERα heavy peptide): 100.0%
[2]; Time 0.5, listed as AZ'6421
  % heavy (ERα heavy peptide): 51.8% and 84.4% and 43.4%
[2]; Time 1, listed as AZ'6421
  % heavy (ERα heavy peptide): 24.8% and 28.9% and 24.0%
[2]; Time 2, listed as AZ'6421
  % heavy (ERα heavy peptide): 13.8% and 13.6% and 9.7%
[2]; Time 4, listed as AZ'6421
  % heavy (ERα heavy peptide): 5.2% and 6.5% and 4.4%
[2]; Time 7, listed as AZ'6421
  % heavy (ERα heavy peptide): 3.1% and 4.5% and 3.3%
[2]; Time 24, listed as AZ'6421
  % heavy (ERα heavy peptide): 3.2% and 3.4% and 2.7%
[2]; Time 48, listed as AZ'6421
  % heavy (ERα heavy peptide): 3.5% and 3.4% and 2.6%
